Assay results: paper PMC8224972, “Thiazide and other Cl-benzenesulfonamide-bearing clinical drug affinities for human carbonic anhydrases” (PLoS ONE, 2021)

Target: CA XIII
Test: not given
Conditions: murine protein, literature value; read-out: Literature Ki or Kd, CA XIII; cited from earlier work

Going from `NS(=O)(=O)c1cc2c(cc1C(F)(F)F)NCNS2(=O)=O` [Compound 10, hydroflumethiazide] to `Cc1ccccc1N1C(=O)c2cc(S(N)(=O)=O)c(Cl)cc2NC1C` (stereo not drawn) [Compound 20, metolazone], the Ki falls from 15.4 µM to 0.015 µM (1000-fold). The second binds more tightly here.

For `NS(=O)(=O)c1cc(C2(O)NC(=O)c3ccccc32)ccc1Cl` (stereo not drawn) [Compound 16, Chlorthalidone], the Ki is listed as 0.015 µM.

Target: CA
Test: not given
Design: method as in doi:10.1016/S0223-5234(97)89083-6
Conditions: CA isoform not identified; cited from earlier work

In the case of `NS(=O)(=O)c1cc2c(cc1Cl)N=CNS2(=O)=O` [Compound 3, chlorothiazide], the Ki is listed as 0.46 µM.

Test system: TSC (thiazide sensitive co-transporter)
Test: not given
Design: method as in PMID 10894798
Conditions: in the presence of 2 mM Cl-; cited from earlier work

`NS(=O)(=O)c1cc2c(cc1Cl)NC(C(Cl)Cl)NS2(=O)=O` (stereo not drawn) [Compound 5, trichloromethiazide] and `Cc1ccccc1N1C(=O)c2cc(S(N)(=O)=O)c(Cl)cc2NC1C` (stereo not drawn) [Compound 20, metolazone] are within 1.5-fold of each other in IC50: 0.5 µM for the first, 0.35 µM for the second.

Target: T1, CA II (Homo sapiens, UniProt P00918)
Test: Stopped-flow CO2 hydration activity assay (SFA)
Format: biochemical
Design: made in house
Conditions: 25°C, pH 7.5, 20 nM CA II, Morrison equation; read-out: Affinity (Kd) by SFA, CA II
Protocol: (§1) The inhibition of CA enzymatic activity by the compounds was measured by the stopped-flow CO2 hydration enzymatic activity assay (SFA) [20]. […] The IC50 measured by SFA were compared to the affinities obtained by FTSA.
(§2) The CO2 spontaneously hydrates in an aqueous solution and the pH decreases. […] The saturated CO2 solution was prepared by bubbling the CO2 gas in MilliQ water at 25°C for 1 h. Experiments were performed at 25°C using 25 mM Hepes buffer containing 50 mM NaCl, pH 7.5, 0–100 μM inhibitor and 0.4% DMSO. […] The rates of CO2 hydration were determined from the slopes of raw curves of initial absorbance change. To determine the fraction of inhibited enzyme, the spontaneous CO2 hydration rate was used as a zero, while the CA-catalyzed reaction rate in the absence of the compound—as a maximum value. Each experiment consisted of 17 compound concentrations, 16 prepared by serial ligand dilution and a last one without the compound. […] The dissociation constants Kd were determined using the Morrison equation as described by Copeland [21].

For `NS(=O)(=O)c1cc2c(cc1Cl)N=CNS2(=O)=O` [Compound 3, chlorothiazide], the Kd was 0.31 µM.

Target: T2, CA IV (Homo sapiens, UniProt P22748)
Test: Stopped-flow CO2 hydration activity assay (SFA)
Format: biochemical
Design: made in house
Conditions: 25°C, pH 7.5, 25 nM CA IV, Morrison equation; read-out: Affinity (Kd) by SFA, CA IV
Protocol: as §1, §2

T2 sequence (P22748 19-312): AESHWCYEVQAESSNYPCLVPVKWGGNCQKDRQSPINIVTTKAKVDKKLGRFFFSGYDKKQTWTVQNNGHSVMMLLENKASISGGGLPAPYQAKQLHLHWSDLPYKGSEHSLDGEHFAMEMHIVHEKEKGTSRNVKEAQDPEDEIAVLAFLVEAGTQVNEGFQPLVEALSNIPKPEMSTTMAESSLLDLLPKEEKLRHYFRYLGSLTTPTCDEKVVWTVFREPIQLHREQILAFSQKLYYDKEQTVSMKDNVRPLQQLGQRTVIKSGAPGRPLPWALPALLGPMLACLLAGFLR

`NS(=O)(=O)c1cc2c(cc1Cl)N=CNS2(=O)=O` [Compound 3, chlorothiazide] showed a Kd of 0.3 µM.

Target: T1, CA II
Test: not given
Design: made in house
Conditions: literature value; read-out: Literature Ki or Kd, CA II; cited from earlier work

For `NS(=O)(=O)c1cc2c(cc1Cl)N=CNS2(=O)=O` [Compound 3, chlorothiazide], the Kd is listed as 0.372 µM.

Same assay, conditions: read-out: Literature Ki or Kd, CA II; cited from earlier work

For `NS(=O)(=O)c1cc(C2(O)NC(=O)c3ccccc32)ccc1Cl` (stereo not drawn) [Compound 16, Chlorthalidone], the Kd is listed as 0.0119 µM.

Target: T3, CA III (Homo sapiens, UniProt P07451)
Test: not given
Design: made in house
Conditions: literature value; read-out: Literature Ki or Kd, CA III; cited from earlier work

T3 sequence (P07451 whole entry): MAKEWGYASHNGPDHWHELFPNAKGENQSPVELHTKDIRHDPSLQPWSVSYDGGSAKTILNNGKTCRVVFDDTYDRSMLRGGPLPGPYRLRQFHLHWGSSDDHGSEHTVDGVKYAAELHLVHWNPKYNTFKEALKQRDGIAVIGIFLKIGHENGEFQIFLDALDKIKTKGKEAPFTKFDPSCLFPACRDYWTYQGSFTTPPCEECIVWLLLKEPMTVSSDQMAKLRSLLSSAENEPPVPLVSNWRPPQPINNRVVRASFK

For `NS(=O)(=O)c1cc2c(cc1C(F)(F)F)NCNS2(=O)=O` [Compound 10, hydroflumethiazide], the Ki is listed as 870 µM.

Target: T1, CA II
Test: Isothermal titration calorimetry (ITC)
Conditions: not given

Molecule `NS(=O)(=O)c1cc2c(cc1Cl)N=CNS2(=O)=O` [Compound 3, chlorothiazide] has a Kd of 0.25 µM.

Target: CA I (Homo sapiens, UniProt P00915)
Test: Fluorescence-based thermal shift assay (FTSA)
Conditions: not given

Chain of CA I (P00915 whole entry): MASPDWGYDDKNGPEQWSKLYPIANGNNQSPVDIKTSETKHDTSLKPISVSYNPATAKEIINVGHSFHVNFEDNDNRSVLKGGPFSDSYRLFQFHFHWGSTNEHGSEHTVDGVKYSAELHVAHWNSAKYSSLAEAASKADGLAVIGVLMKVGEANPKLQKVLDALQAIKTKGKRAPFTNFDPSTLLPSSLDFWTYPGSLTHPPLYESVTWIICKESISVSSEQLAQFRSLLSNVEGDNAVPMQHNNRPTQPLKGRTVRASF

First: NS(=O)(=O)c1cc2c(cc1C(F)(F)F)NCNS2(=O)=O [Compound 10, hydroflumethiazide]
Second: Cc1ccccc1N1C(=O)c2cc(S(N)(=O)=O)c(Cl)cc2NC1C (stereo not drawn) [Compound 20, metolazone]
The Kd of the first is 2.6-fold lower: 50 µM for the first, 130 µM for the second. The first binds more tightly here.

Target: T1, CA II
Test: Fluorescence-based thermal shift assay (FTSA)
Conditions: not given

Compared with `NS(=O)(=O)c1cc2c(cc1Cl)N=CNS2(=O)=O` [Compound 3, chlorothiazide], `NS(=O)(=O)c1cc2c(cc1C(F)(F)F)NCNS2(=O)=O` [Compound 10, hydroflumethiazide] is 46-fold higher in Kd: 0.37 µM for the first, 17 µM for the second.

First: NS(=O)(=O)c1cc(C2(O)NC(=O)c3ccccc32)ccc1Cl (stereo not drawn) [Compound 16, Chlorthalidone]
Second: Cc1ccccc1N1C(=O)c2cc(S(N)(=O)=O)c(Cl)cc2NC1C (stereo not drawn) [Compound 20, metolazone]
The Kd of the first is 80-fold lower: 0.035 µM for the first, 2.8 µM for the second. The first binds more tightly here.

Same assay, conditions: FTSA

For `NS(=O)(=O)c1cc2c(cc1C(F)(F)F)NCNS2(=O)=O` [Compound 10, hydroflumethiazide], the “Binding to CA II in words” value was “weak binders”.

Target: T3, CA III
Test: Fluorescence-based thermal shift assay (FTSA)
Conditions: not given

Going from `NS(=O)(=O)c1cc2c(cc1Cl)N=CNS2(=O)=O` [Compound 3, chlorothiazide] to `NS(=O)(=O)c1cc2c(cc1C(F)(F)F)NCNS2(=O)=O` [Compound 10, hydroflumethiazide], the Kd rises from 15 µM to > 200 µM. The first binds more tightly here.

Going from `NS(=O)(=O)c1cc(C2(O)NC(=O)c3ccccc32)ccc1Cl` (stereo not drawn) [Compound 16, Chlorthalidone] to `Cc1ccccc1N1C(=O)c2cc(S(N)(=O)=O)c(Cl)cc2NC1C` (stereo not drawn) [Compound 20, metolazone], the Kd rises from 17 µM to > 200 µM. The first binds more tightly here.

Target: T2, CA IV
Test: Fluorescence-based thermal shift assay (FTSA)
Conditions: not given

Going from `NS(=O)(=O)c1cc2c(cc1Cl)N=CNS2(=O)=O` [Compound 3, chlorothiazide] to `NS(=O)(=O)c1cc2c(cc1C(F)(F)F)NCNS2(=O)=O` [Compound 10, hydroflumethiazide], the Kd rises from 0.31 µM to 24 µM (77-fold). The first binds more tightly here.

Going from `NS(=O)(=O)c1cc(C2(O)NC(=O)c3ccccc32)ccc1Cl` (stereo not drawn) [Compound 16, Chlorthalidone] to `Cc1ccccc1N1C(=O)c2cc(S(N)(=O)=O)c(Cl)cc2NC1C` (stereo not drawn) [Compound 20, metolazone], the Kd rises from 0.016 µM to 0.091 µM (5.7-fold).

Target: CA VA (Homo sapiens, UniProt P35218)
Test: Fluorescence-based thermal shift assay (FTSA)
Conditions: not given

Chain of CA VA (P35218 39-305): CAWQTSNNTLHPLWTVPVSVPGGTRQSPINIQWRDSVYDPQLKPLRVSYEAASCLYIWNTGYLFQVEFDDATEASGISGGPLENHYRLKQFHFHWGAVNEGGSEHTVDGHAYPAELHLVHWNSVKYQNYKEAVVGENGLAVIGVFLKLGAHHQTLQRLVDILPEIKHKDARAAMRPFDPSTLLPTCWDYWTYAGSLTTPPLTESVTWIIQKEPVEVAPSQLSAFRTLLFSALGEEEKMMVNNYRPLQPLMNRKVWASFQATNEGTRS

First: NS(=O)(=O)c1cc2c(cc1Cl)N=CNS2(=O)=O [Compound 3, chlorothiazide]
Second: NS(=O)(=O)c1cc2c(cc1C(F)(F)F)NCNS2(=O)=O [Compound 10, hydroflumethiazide]
The Kd of the first is 48-fold lower: 0.83 µM for the first, 40 µM for the second.

`NS(=O)(=O)c1cc(C2(O)NC(=O)c3ccccc32)ccc1Cl` (stereo not drawn) [Compound 16, Chlorthalidone] and `Cc1ccccc1N1C(=O)c2cc(S(N)(=O)=O)c(Cl)cc2NC1C` (stereo not drawn) [Compound 20, metolazone] are within 1.5-fold of each other in Kd: 4.8 µM for the first, 5.8 µM for the second.

Target: CA VB (Homo sapiens, UniProt Q9Y2D0)
Test: Fluorescence-based thermal shift assay (FTSA)
Conditions: not given

Chain of CA VB (Q9Y2D0 34-317): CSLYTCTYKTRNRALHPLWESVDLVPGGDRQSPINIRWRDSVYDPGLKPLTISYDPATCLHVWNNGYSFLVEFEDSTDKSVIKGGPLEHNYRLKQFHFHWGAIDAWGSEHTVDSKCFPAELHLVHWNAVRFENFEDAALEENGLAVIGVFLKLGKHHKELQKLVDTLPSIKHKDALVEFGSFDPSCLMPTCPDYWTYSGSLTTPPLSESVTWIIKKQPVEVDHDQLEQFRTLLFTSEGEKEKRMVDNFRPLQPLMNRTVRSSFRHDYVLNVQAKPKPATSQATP

First: NS(=O)(=O)c1cc2c(cc1Cl)N=CNS2(=O)=O [Compound 3, chlorothiazide]
Second: NS(=O)(=O)c1cc2c(cc1C(F)(F)F)NCNS2(=O)=O [Compound 10, hydroflumethiazide]
The Kd of the first is 19-fold lower: 0.048 µM for the first, 0.91 µM for the second.

Compared with `NS(=O)(=O)c1cc(C2(O)NC(=O)c3ccccc32)ccc1Cl` (stereo not drawn) [Compound 16, Chlorthalidone], `Cc1ccccc1N1C(=O)c2cc(S(N)(=O)=O)c(Cl)cc2NC1C` (stereo not drawn) [Compound 20, metolazone] is 3-fold higher in Kd: 0.47 µM for the first, 1.4 µM for the second.

Target: CA VI (Homo sapiens, UniProt P23280)
Test: Fluorescence-based thermal shift assay (FTSA)
Conditions: not given

Chain of CA VI (P23280 18-308): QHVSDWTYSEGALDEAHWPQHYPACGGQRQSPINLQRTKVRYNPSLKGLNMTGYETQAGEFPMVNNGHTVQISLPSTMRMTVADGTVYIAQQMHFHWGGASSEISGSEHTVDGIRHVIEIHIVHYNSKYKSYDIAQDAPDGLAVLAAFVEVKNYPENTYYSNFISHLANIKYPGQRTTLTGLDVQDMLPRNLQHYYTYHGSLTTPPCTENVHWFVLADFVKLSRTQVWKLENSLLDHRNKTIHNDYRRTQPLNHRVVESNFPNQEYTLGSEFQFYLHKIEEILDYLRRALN

Going from `NS(=O)(=O)c1cc2c(cc1Cl)N=CNS2(=O)=O` [Compound 3, chlorothiazide] to `NS(=O)(=O)c1cc2c(cc1C(F)(F)F)NCNS2(=O)=O` [Compound 10, hydroflumethiazide], the Kd rises from 0.62 µM to 29 µM (47-fold). The first binds more tightly here.

First: NS(=O)(=O)c1cc(C2(O)NC(=O)c3ccccc32)ccc1Cl (stereo not drawn) [Compound 16, Chlorthalidone]
Second: Cc1ccccc1N1C(=O)c2cc(S(N)(=O)=O)c(Cl)cc2NC1C (stereo not drawn) [Compound 20, metolazone]
The Kd of the first is 9-fold lower: 0.11 µM for the first, 0.99 µM for the second. The first binds more tightly here.

Target: CA VII (Homo sapiens, UniProt P43166)
Test: Fluorescence-based thermal shift assay (FTSA)
Conditions: not given

Chain of CA VII (P43166 whole entry): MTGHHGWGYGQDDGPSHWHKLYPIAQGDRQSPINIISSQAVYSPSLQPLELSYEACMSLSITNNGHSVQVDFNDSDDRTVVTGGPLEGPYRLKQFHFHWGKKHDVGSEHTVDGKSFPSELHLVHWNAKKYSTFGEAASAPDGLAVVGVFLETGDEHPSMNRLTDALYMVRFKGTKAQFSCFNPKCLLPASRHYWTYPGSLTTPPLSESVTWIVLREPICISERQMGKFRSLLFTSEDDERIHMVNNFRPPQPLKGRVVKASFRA

First: NS(=O)(=O)c1cc2c(cc1Cl)N=CNS2(=O)=O [Compound 3, chlorothiazide]
Second: NS(=O)(=O)c1cc2c(cc1C(F)(F)F)NCNS2(=O)=O [Compound 10, hydroflumethiazide]
The Kd of the first is 240-fold lower: 0.07 µM for the first, 17 µM for the second. The first binds more tightly here.

Work on `NS(=O)(=O)c1cc(C2(O)NC(=O)c3ccccc32)ccc1Cl` (stereo not drawn) [Compound 16, Chlorthalidone] yielded a Kd of 0.043 µM.

Target: CA IX (Homo sapiens, UniProt Q16790)
Test: Fluorescence-based thermal shift assay (FTSA)
Conditions: not given

First: NS(=O)(=O)c1cc2c(cc1Cl)N=CNS2(=O)=O [Compound 3, chlorothiazide]
Second: NS(=O)(=O)c1cc2c(cc1C(F)(F)F)NCNS2(=O)=O [Compound 10, hydroflumethiazide]
The Kd of the first is 12-fold lower: 0.13 µM for the first, 1.6 µM for the second.

First: NS(=O)(=O)c1cc(C2(O)NC(=O)c3ccccc32)ccc1Cl (stereo not drawn) [Compound 16, Chlorthalidone]
Second: Cc1ccccc1N1C(=O)c2cc(S(N)(=O)=O)c(Cl)cc2NC1C (stereo not drawn) [Compound 20, metolazone]
The Kd of the first is 24-fold lower: 0.033 µM for the first, 0.8 µM for the second.

Target: CA XII (Homo sapiens, UniProt O43570)
Test: Fluorescence-based thermal shift assay (FTSA)
Conditions: not given

Chain of CA XII (O43570 25-354): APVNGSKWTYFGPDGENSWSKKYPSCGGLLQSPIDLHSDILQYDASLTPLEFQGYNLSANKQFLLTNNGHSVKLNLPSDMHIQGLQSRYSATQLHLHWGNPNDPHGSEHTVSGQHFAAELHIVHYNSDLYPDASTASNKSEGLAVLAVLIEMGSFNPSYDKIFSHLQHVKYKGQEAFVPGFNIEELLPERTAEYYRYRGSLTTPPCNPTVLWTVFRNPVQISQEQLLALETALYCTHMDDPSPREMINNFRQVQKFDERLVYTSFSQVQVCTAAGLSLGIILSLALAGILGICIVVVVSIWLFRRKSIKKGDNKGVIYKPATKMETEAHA

First: NS(=O)(=O)c1cc2c(cc1Cl)N=CNS2(=O)=O [Compound 3, chlorothiazide]
Second: NS(=O)(=O)c1cc2c(cc1C(F)(F)F)NCNS2(=O)=O [Compound 10, hydroflumethiazide]
The Kd of the first is 170-fold lower: 0.18 µM for the first, 31 µM for the second.

`Cc1ccccc1N1C(=O)c2cc(S(N)(=O)=O)c(Cl)cc2NC1C` (stereo not drawn) [Compound 20, metolazone] gave a Kd of 15 µM.

Target: CA XIII (Homo sapiens, UniProt Q8N1Q1)
Test: Fluorescence-based thermal shift assay (FTSA)
Conditions: not given

Chain of CA XIII (Homo sapiens, UniProt Q8N1Q1) (Q8N1Q1 whole entry): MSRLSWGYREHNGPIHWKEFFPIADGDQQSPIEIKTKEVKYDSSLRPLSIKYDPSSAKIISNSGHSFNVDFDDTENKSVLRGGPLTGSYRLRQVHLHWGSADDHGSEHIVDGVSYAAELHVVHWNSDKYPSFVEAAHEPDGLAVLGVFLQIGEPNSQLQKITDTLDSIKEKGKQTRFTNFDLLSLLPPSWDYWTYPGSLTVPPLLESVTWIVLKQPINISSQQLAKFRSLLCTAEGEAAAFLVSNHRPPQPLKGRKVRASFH

Going from `NS(=O)(=O)c1cc2c(cc1Cl)N=CNS2(=O)=O` [Compound 3, chlorothiazide] to `NS(=O)(=O)c1cc2c(cc1C(F)(F)F)NCNS2(=O)=O` [Compound 10, hydroflumethiazide], the Kd rises from 0.039 µM to 0.47 µM (12-fold). The first binds more tightly here.

Compared with `NS(=O)(=O)c1cc(C2(O)NC(=O)c3ccccc32)ccc1Cl` (stereo not drawn) [Compound 16, Chlorthalidone], `Cc1ccccc1N1C(=O)c2cc(S(N)(=O)=O)c(Cl)cc2NC1C` (stereo not drawn) [Compound 20, metolazone] is 6-fold higher in Kd: 0.03 µM for the first, 0.18 µM for the second.

Target: CA XIV (Homo sapiens, UniProt Q9ULX7)
Test: Fluorescence-based thermal shift assay (FTSA)
Conditions: not given

Chain of CA XIV (Q9ULX7 16-337): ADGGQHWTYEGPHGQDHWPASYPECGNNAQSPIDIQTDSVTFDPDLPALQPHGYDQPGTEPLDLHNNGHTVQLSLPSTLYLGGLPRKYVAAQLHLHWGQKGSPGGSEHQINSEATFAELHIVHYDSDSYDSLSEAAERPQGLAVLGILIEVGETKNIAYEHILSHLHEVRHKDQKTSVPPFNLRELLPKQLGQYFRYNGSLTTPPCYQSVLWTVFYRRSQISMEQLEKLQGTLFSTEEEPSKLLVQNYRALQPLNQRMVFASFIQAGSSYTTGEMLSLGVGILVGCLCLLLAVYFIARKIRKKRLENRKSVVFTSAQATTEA

Compared with `NS(=O)(=O)c1cc2c(cc1Cl)N=CNS2(=O)=O` [Compound 3, chlorothiazide], `NS(=O)(=O)c1cc2c(cc1C(F)(F)F)NCNS2(=O)=O` [Compound 10, hydroflumethiazide] is 14-fold higher in Kd: 0.25 µM for the first, 3.6 µM for the second.

Going from `NS(=O)(=O)c1cc(C2(O)NC(=O)c3ccccc32)ccc1Cl` (stereo not drawn) [Compound 16, Chlorthalidone] to `Cc1ccccc1N1C(=O)c2cc(S(N)(=O)=O)c(Cl)cc2NC1C` (stereo not drawn) [Compound 20, metolazone], the Kd rises from 0.019 µM to 1.3 µM (68-fold). The first binds more tightly here.
